Bridge positions count the residues as written; N and C are the ends. Square brackets hold non-standard residues; d marks the D form. Peptide text beside a SMILES is read from it. * marks the point of attachment. ξ: configuration not given here. Phe(4-NO2) = N[C@@H](Cc1ccc([N+](=O)[O-])cc1)C(=O)O; Phe(3-CF3) = N[C@@H](Cc1cccc(C(F)(F)F)c1)C(=O)O; Bip = N[C@@H](Cc1ccc(-c2ccccc2)cc1)C(=O)O; Phe(3-CN) = N#Cc1cccc(C[C@H](N)C(=O)O)c1; Phe(3-Me) = Cc1cccc(C[C@H](N)C(=O)O)c1; 1Nal = N[C@@H](Cc1cccc2ccccc12)C(=O)O; Dopa = N[C@@H](Cc1ccc(O)c(O)c1)C(=O)O; Val(3-OH) = CC(C)(O)[C@H](N)C(=O)O; ξW = NC(Cc1c[nH]c2ccccc12)C(=O)O; 3Pal = N[C@@H](Cc1cccnc1)C(=O)O; 4Pal = N[C@@H](Cc1ccncc1)C(=O)O; Cha = N[C@@H](CC1CCCCC1)C(=O)O; Cit = NC(=O)NCCC[C@H](N)C(=O)O; Ile(3ξ) = CCC(C)[C@H](N)C(=O)O; Thr(3ξ) = CC(O)[C@H](N)C(=O)O; Carboxymethyl = O=C(O)C*; NMeA = CN[C@@H](C)C(=O)O; Dab = NCC[C@H](N)C(=O)O; ξL = CC(C)CC(N)C(=O)O; ξC = NC(CS)C(=O)O
These molecules were tested against T1, PE-labeled human PD-L1-Ig binding to Jurkat cell line over-expressing human PD-1 (Jurkat-PD-1) (Homo sapiens, UniProt Q15116) (assay: Jurkat-PD-1 Cell Binding High-Content Screening Assay (CBA): Method 1). Details: Jurkat-hPD-1 cells, PE-labeled PD-L1-Ig 20 nM final; read-out: Jurkat HPDL1 PD1 IC50 (uM) (Method 1).
T1 construct: expressed in transfected cells; host or cells: Jurkat
T1 sequence (Q15116 25-288): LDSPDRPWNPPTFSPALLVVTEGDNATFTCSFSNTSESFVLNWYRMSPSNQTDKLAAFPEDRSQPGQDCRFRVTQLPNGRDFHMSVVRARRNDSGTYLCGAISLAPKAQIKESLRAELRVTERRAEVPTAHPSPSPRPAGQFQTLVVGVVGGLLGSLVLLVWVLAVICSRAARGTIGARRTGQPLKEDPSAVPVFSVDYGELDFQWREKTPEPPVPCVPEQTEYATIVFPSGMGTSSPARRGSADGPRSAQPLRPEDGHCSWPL
Molecule `CC(C)C[C@@H]1NC(=O)[C@H](CCN)NC(=O)[C@@H](CC(C)C)NC(=O)[C@H](C)N(C)C(=O)[C@H](CCCNC(=N)N)NC(=O)[C@H](Cc2ccc(-c3ccccc3)cc2)NC(=O)[C@H](C(C)C)NC(=O)[C@H](Cc2c[nH]c3ccccc23)NC(=O)[C@H](CC(=O)O)NC(=O)[C@H](Cc2ccc(OCC(=O)O)cc2)NC(=O)[C@H](Cc2cccnc2)NC(=O)CSC[C@@H](C(=O)N[C@@H](C)C(N)=O)NC(=O)[C@H]([C@@H](C)O)NC(=O)[C@H](C(C)C)NC1=O` [Compound 1158] ({CH2CO}-[3Pal]Y(Carboxymethyl)DWV[Bip]R[NMeA][dL][Dab]LVTCA-NH2; thioether N-14) has an IC50 of 0.03 µM.
For `CC(C)C[C@@H]1NC(=O)[C@H](CCN)NC(=O)[C@@H](CC(C)C)NC(=O)[C@H](C)N(C)C(=O)[C@H](CCCNC(=N)N)NC(=O)[C@H](Cc2ccc(-c3ccccc3)cc2)NC(=O)[C@H](C(C)C)NC(=O)[C@H](Cc2c[nH]c3ccccc23)NC(=O)[C@H](CC(=O)O)NC(=O)[C@H](Cc2cccc(C#N)c2)NC(=O)[C@H](CC(N)=O)NC(=O)CSC[C@@H](C(=O)N[C@@H](C)C(N)=O)NC(=O)[C@H]([C@@H](C)O)NC(=O)[C@H](C(C)C)NC1=O` [Compound 1308] ({CH2CO}-N[Phe(3-CN)]DWV[Bip]R[NMeA][dL][Dab]LVTCA-NH2; thioether N-14), the IC50 was 0.11 µM.
Molecule `CC(C)C[C@@H]1NC(=O)[C@H](Cc2c[nH]c3ccccc23)NC(=O)[C@H](CC(=O)O)NC(=O)[C@H](Cc2ccc(O)c(O)c2)NC(=O)[C@H](Cc2ccccc2)NC(=O)CSC[C@@H](C(=O)N[C@@H](C)C(N)=O)NC(=O)[C@H](CO)NC(=O)[C@H](C(C)C)NC(=O)[C@H](CC(C)C)NC(=O)[C@H](CC(N)=O)NC(=O)[C@@H](C)NC(=O)[C@H](C)N(C)C(=O)[C@H](C(C)C)NC(=O)[C@H](Cc2ccc(-c3ccccc3)cc2)NC1=O` [Compound 1724] ({CH2CO}-F[Dopa]DWL[Bip]V[NMeA][dA]NLVSCA-NH2; thioether N-14) has an IC50 of 0.01 µM.
Work on `Cc1cccc(C[C@@H]2NC(=O)[C@H](CC(N)=O)NC(=O)[C@H](Cc3ccc(OCC(=O)O)cc3)NC(=O)[C@H]([C@@H](C)O)NC(=O)CSC[C@@H](C(=O)N[C@@H](CCN)C(N)=O)NC(=O)[C@H](CCC(=O)O)NC(=O)[C@H](C(C)C)NC(=O)[C@H](CC3CCCCC3)NC(=O)[C@H](CCN)NC(=O)[C@@H](CC(C)C)NC(=O)[C@H](C)N(C)C(=O)[C@H](Cc3ccc(OCC(=O)O)cc3)NC(=O)[C@H](Cc3ccc(-c4ccccc4)cc3)NC(=O)[C@H](Cc3ccc(OCC(=O)O)cc3)NC2=O)c1` [Example 2281] ({CH2CO}-TY(Carboxymethyl)N[Phe(3-Me)]Y(Carboxymethyl)[Bip]Y(Carboxymethyl)[NMeA][dL][Dab][Cha]VEC[Dab]-NH2; thioether N-14) yielded an IC50 of 0.77 µM.
`CC(C)C[C@@H]1NC(=O)[C@H](Cc2c[nH]c3ccccc23)NC(=O)[C@H](CC(=O)O)NC(=O)[C@H](Cc2cccc3ccccc23)NC(=O)[C@H](Cc2ccccc2)NC(=O)CSC[C@@H](C(=O)N[C@@H](C)C(N)=O)NC(=O)[C@H](CO)NC(=O)[C@H](C(C)C)NC(=O)[C@H](CC(C)C)NC(=O)[C@H](CC(N)=O)NC(=O)[C@@H](C)NC(=O)[C@H](C)N(C)C(=O)[C@H](C(C)C)NC(=O)[C@H](Cc2ccc(-c3ccccc3)cc2)NC1=O` [Compound 1805] ({CH2CO}-F[1Nal]DWL[Bip]V[NMeA][dA]NLVSCA-NH2; thioether N-14) gave an IC50 of 0.23 µM.
Work on `Cc1cccc(C[C@@H]2NC(=O)[C@H](CC(=O)O)NC(=O)[C@H](Cc3ccc(O)cc3)NC(=O)[C@H](CC(N)=O)NC(=O)CSC[C@@H](C(=O)N[C@H](C)C(N)=O)NC(=O)[C@H]([C@@H](C)O)NC(=O)[C@H](C(C)(C)O)NC(=O)[C@H](CC3CCCCC3)NC(=O)[C@H](CCN)NC(=O)[C@@H](CC(C)C)NC(=O)[C@H](C)N(C)C(=O)[C@H](CCCNC(N)=O)NC(=O)[C@H](Cc3ccc(-c4ccccc4)cc3)NC(=O)[C@H](C(C)(C)O)NC2=O)c1` [Compound 1706] ({CH2CO}-NYD[Phe(3-Me)][Val(3-OH)][Bip][Cit][NMeA][dL][Dab][Cha][Val(3-OH)]TC[dA]-NH2; thioether N-14) yielded an IC50 of 0.12 µM.
For `Cc1cccc(C[C@@H]2NC(=O)[C@H](CC(=O)O)NC(=O)[C@H](Cc3ccc(OCC(=O)O)cc3)NC(=O)[C@H](Cc3ccncc3)NC(=O)CSC[C@@H](C(N)=O)NC(=O)[C@H](CC(N)=O)NC(=O)[C@H](C(C)C)NC(=O)[C@H](CC3CCCCC3)NC(=O)[C@H](CCN)NC(=O)[C@@H](CC(C)C)NC(=O)[C@H](C)N(C)C(=O)[C@H](Cc3ccc(OCC(=O)O)cc3)NC(=O)[C@H](Cc3ccc(-c4ccccc4)cc3)NC(=O)[C@H](Cc3ccc(OCC(=O)O)cc3)NC2=O)c1` [Compound 1663] ({CH2CO}-[4Pal]Y(Carboxymethyl)D[Phe(3-Me)]Y(Carboxymethyl)[Bip]Y(Carboxymethyl)[NMeA][dL][Dab][Cha]VNC-NH2; thioether N-14), the IC50 was 0.01 µM.
With `Cc1cccc(C[C@@H]2NC(=O)[C@H](CC(=O)O)NC(=O)[C@H](Cc3ccc(OCC(=O)O)cc3)NC(=O)[C@H](Cc3ccncc3)NC(=O)CSC[C@@H](C(=O)NCC(N)=O)NC(=O)[C@H](CO)NC(=O)[C@H](C(C)C)NC(=O)[C@H](CC(C)C)NC(=O)[C@H](CC(N)=O)NC(=O)[C@@H](CC(C)C)NC(=O)[C@H](C)N(C)C(=O)[C@H](C(C)C)NC(=O)[C@H](Cc3ccc(-c4ccccc4)cc3)NC(=O)[C@H](CC(C)C)NC2=O)c1` [Compound 1557] ({CH2CO}-[4Pal]Y(Carboxymethyl)D[Phe(3-Me)]L[Bip]V[NMeA][dL]NLVSCG-NH2; thioether N-14) the IC50 was 0.01 µM.
Work on `CC(C)C[C@@H]1NC(=O)[C@H](CCN)NC(=O)[C@@H](CC(C)C)NC(=O)[C@H](C)N(C)C(=O)[C@H](CCCNC(N)=O)NC(=O)[C@H](Cc2ccc(-c3ccccc3)cc2)NC(=O)[C@H](C(C)C)NC(=O)[C@H](Cc2c[nH]c3ccccc23)NC(=O)[C@H](CC(=O)O)NC(=O)[C@H](Cc2ccc(O)cc2)NC(=O)[C@H](Cc2ccccc2)NC(=O)CSC[C@@H](C(=O)N[C@@H](C)C(N)=O)NC(=O)[C@H](C(C)O)NC(=O)[C@H](C(C)C)NC1=O` (stereo partly drawn) [Compound 2033] ({CH2CO}-FYDWV[Bip][Cit][NMeA][dL][Dab]LV[Thr(3ξ)]CA-NH2; thioether N-14) yielded an IC50 of 0.03 µM.
`CC(C)C[C@@H]1NC(=O)[C@H](CCN)NC(=O)[C@@H](CC(C)C)NC(=O)[C@H](C)N(C)C(=O)[C@H](CCCNC(=N)N)NC(=O)[C@H](Cc2ccc(-c3ccccc3)cc2)NC(=O)[C@H](C(C)C)NC(=O)[C@H](Cc2c[nH]c3ccccc23)NC(=O)[C@H](CC(=O)O)NC(=O)[C@H](Cc2ccc(O)cc2)NC(=O)[C@H](Cc2ccc([N+](=O)[O-])cc2)NC(=O)CSC[C@@H](C(=O)N[C@@H](C)C(N)=O)NC(=O)[C@H]([C@@H](C)O)NC(=O)[C@H](C(C)C)NC1=O` [Compound 1187] ({CH2CO}-[Phe(4-NO2)]YDWV[Bip]R[NMeA][dL][Dab]LVTCA-NH2; thioether N-14) was tested, and the IC50 was 0.05 µM.
`CC(C)C[C@@H]1NC(=O)[C@H](Cc2c[nH]c3ccccc23)NC(=O)[C@H](CC(=O)O)NC(=O)[C@H](Cc2ccncc2)NC(=O)[C@H](Cc2ccc(OCC(=O)O)cc2)NC(=O)CSC[C@@H](C(=O)N[C@H](CC(N)=O)C(N)=O)NC(=O)[C@H](CO)NC(=O)[C@H](C(C)C)NC(=O)[C@H](CC2CCCCC2)NC(=O)[C@H](CCN)NC(=O)[C@@H](CC(C)C)NC(=O)[C@H](C)N(C)C(=O)[C@H](Cc2ccc(O)cc2)NC(=O)[C@H](Cc2ccc(-c3ccccc3)cc2)NC1=O` [Compound 1907] ({CH2CO}-Y(Carboxymethyl)[4Pal]DWL[Bip]Y[NMeA][dL][Dab][Cha]VSC[dN]-NH2; thioether N-14) gave an IC50 of 0.12 µM.
`CCC(C)[C@@H]1NC(=O)[C@H](Cc2ccc(-c3ccccc3)cc2)NC(=O)[C@H](C(C)C)NC(=O)[C@H](Cc2c[nH]c3ccccc23)NC(=O)[C@H](CC(=O)O)NC(=O)[C@H](Cc2ccc(OCC(=O)O)cc2)NC(=O)[C@H](C(C)O)NC(=O)CSC[C@@H](C(=O)N[C@@H](CCN)C(N)=O)NC(=O)[C@H](C(C)O)NC(=O)[C@H](C(C)C)NC(=O)[C@H](CC2CCCCC2)NC(=O)[C@H](CCN)NC(=O)C(CC(C)C)NC(=O)[C@H](C)N(C)C1=O` (stereo partly drawn) [Compound 2114] ({CH2CO}-[Thr(3ξ)]Y(Carboxymethyl)DWV[Bip][Ile(3ξ)][NMeA][ξL][Dab][Cha]V[Thr(3ξ)]C[Dab]-NH2; thioether N-14) showed an IC50 of 0.02 µM.
`CC(C)C[C@@H]1NC(=O)[C@H](CCCNC(=N)N)NC(=O)[C@@H](CC(C)C)NC(=O)[C@H](C)N(C)C(=O)[C@H](CCCNC(=N)N)NC(=O)[C@H](Cc2ccc(-c3ccccc3)cc2)NC(=O)[C@H](C(C)C)NC(=O)[C@H](Cc2cccc(C(F)(F)F)c2)NC(=O)[C@H](CC(=O)O)NC(=O)[C@H](Cc2ccc(O)cc2)NC(=O)[C@H](CC(N)=O)NC(=O)CSC[C@@H](C(=O)N[C@@H](C)C(N)=O)NC(=O)[C@H]([C@@H](C)O)NC(=O)[C@H](C(C)C)NC1=O` [Compound 1198] ({CH2CO}-NYD[Phe(3-CF3)]V[Bip]R[NMeA][dL]RLVTCA-NH2; thioether N-14) was tested, and the IC50 was 0.06 µM.
In the case of `CC(C)C[C@@H]1NC(=O)[C@H](CCCNC(=N)N)NC(=O)C(Cc2c[nH]c3ccccc23)NC(=O)[C@H](C)N(C)C(=O)[C@H](CCCNC(=N)N)NC(=O)[C@H](Cc2ccc(-c3ccccc3)cc2)NC(=O)[C@H](C(C)C)NC(=O)[C@H](Cc2c[nH]c3ccccc23)NC(=O)[C@H](CC(=O)O)NC(=O)[C@H](Cc2ccc(O)cc2)NC(=O)[C@H](Cc2ccccc2)NC(=O)CSC[C@@H](C(=O)NCC(N)=O)NC(=O)[C@H](CO)NC(=O)[C@H](C(C)C)NC1=O` (stereo partly drawn) [Compound 1021] ({CH2CO}-FYDWV[Bip]R[NMeA][ξW]RLVSCG-NH2; thioether N-14), the IC50 is reported as 0.14 µM.
`CCC(C)[C@@H]1NC(=O)[C@H](Cc2ccc(-c3ccccc3)cc2)NC(=O)[C@H](C(C)C)NC(=O)[C@H](Cc2c[nH]c3ccccc23)NC(=O)[C@H](CC(=O)O)NC(=O)[C@H](Cc2ccc(O)cc2)NC(=O)[C@H](Cc2ccncc2)NC(=O)CSCC(C(=O)N[C@@H](CCN)C(=O)O)NC(=O)[C@H](C(C)O)NC(=O)[C@H](C(C)C)NC(=O)[C@H](CC2CCCCC2)NC(=O)[C@H](CC(N)=O)NC(=O)[C@@H](CC(C)C)NC(=O)[C@H](C)N(C)C1=O` (stereo partly drawn) [Compound 2213] ({CH2CO}-[4Pal]YDWV[Bip][Ile(3ξ)][NMeA][dL]N[Cha]V[Thr(3ξ)][ξC][Dab]-OH; thioether N-14) gave an IC50 of 0.02 µM.
